Experimental data from patent US7741344B2, “Process for preparing purified S-BEL and R-BEL and compositions thereof” (Washington University in St. Louis, priority 2002, dated 2010).

Legend:
α-chymotrypsin = target: T1, α-chymotrypsin (Bos taurus, UniProt P00766); assay: Inhibition of α-chymotrypsin by BEL; type: biochemical; settings: 2 μM chymotrypsin, up to 5-fold molar excess of inhibitor, 5 min 22° C., then 1000-fold dilution with 100 mM hydrazine; FIG. 3
T1 construct: purchased Sigma
Description: Inhibition of α-Chymotrypsin by BEL—The kinetics of α-chymotrrpsin inactivation by (R)-, (S)-, and rac-BEL were performed similar to methods previously described (36). The concentration of α-chymotrypsin (MW=25,000) was determined using an A^1%=20 (1 cm pathlength) at 280 nm (37). Briefly, one milliliter of α-chymotrypsin (2 μM) was incubated with up to a 5-fold molar excess of (R)-,(S)-, or rac-BEL dissolved in acetonitrile or vehicle alone for 5 mm at 22° C. in 0.1 M sodium phosphate buffer, pH 7.2. […] Following incubation at 22° C. for 1 hr, chymotrypsin activity in each diluted sample was measured utilizing a SPECTRAmax GeminiXS microplate spectrofluorometer with N-succinyl-Ala-Ala-Pro-Phe-7-amidomethylcoumarin (50 μM) as substrate for 1 mm at 25° C. Excitation and emission wavelengths were 380 nm and 460 nm, respectively.
Chymotrypsin (2 μM) in 0.1 M sodium phosphate buffer, pH 7.2 was incubated with the indicated concentrations of racemic, (R)-, or (S)-BEL for 5 mm. This solution was then diluted 1000-fold in 0.1 M sodium phosphate buffer, pH 7.2 containing 100 mM hydrazine and incubated for 1 hr at 22° C. Chymotrypsin proteolytic activity was measured spectrofluorometrically using N-succinyl-Ala-Ala-Pro-Phe-7-amido-4-methylcoumarin (50 μM) as substrate.

[1] = tested on: purified recombinant iPLA2β; assay: Assay of iPLA2β inhibition by BEL (radiolabeled phospholipid substrate); type: biochemical
Description: Recombinant iPLA2 Enzymes—Recombinant iPLA2β was expressed and purified from Sf9 cells as previously described (35).
Assay of iPLA2β and iPLA2γ Inhibition by BEL—Purified recombinant iPLA2β or Sf9 cell membranes containing recombinant iPLA2γ were incubated with (R) BEL, (S) BEL, racemic BEL, or ethanol vehicle for 3 mm at 22° C. in the presence of 100 mM Tris-HCl (pH 7.0) and 4 mM EGTA (for iPLA2β) or 100 mM Tris-acetate (pH 8.0) and 4 mM EGTA (for iPLA2γ). The concentration of BEL used for each test ranged from 0 to 16 μM. L-α-1-palmitoyl-2-[1^14C]-arachidonyl-phosphatidylcholine (5 μM final concentration) or L-α-1-palmitoyl-2-[1-^14C]-oleoyl-phosphatidylcholine (5 μM final concentration) in ethanol was then added to each sample and incubated at 37° C. for 2 min. Reactions were terminated by extraction of radiolabeled products into butanol, and reactants and products were separated by thin layer chromatography using Whatman LK6D 60 Å Silica Gel plates with petroleum ether/ethyl ether/acetic acid (70:30:1) as the mobile phase. Regions corresponding to the migration of a fatty acid standard visualized by iodine staining were scraped into vials and radioactivity was quantified by scintillation spectrometry.
Panel A—Purified recombinant iPLA2β (1 μg/ml) in 100 mM Tris-HCl, pH 7.3 containing 1 mM EGTA was preincubated at 22° C. for 3 mm in the presence of the indicated concentrations of (R)-, (S)-, or rac-BEL or ethanol vehicle alone (1% final concentration). Radiolabeled substrate (L-α-1-palmitoyl-2-[1-^14C]-arachidonyl-phosphatidylcholine, 5 μM final concentration) was then added to each reaction and incubated at 37° C. for 2 min. Reactions were terminated by extraction of remaining substrate and products into butanol, separation by TLC, and quantification of released radiolabeled fatty acid by scintillation spectrometry as described in Experimental Procedures.

A-10 smooth muscle cells = assay: AVP-induced [3H]-arachidonic acid liberation from A-10 cells; type: cell-based, rat; settings: for restoration of arachidonic acid release in (S)-BEL treated A-10 cells: 5 μM (S)-BEL pretreatment, then 1 μM AVP with PMA (1 μM) or DOG (10 μM), FIG. 7
Description: Quantification of [^3H]-Arachidonic Acid Liberation from A-10 Phospholipids—Rat aortic smooth muscle A-10 cells, cultured in 60 mm dishes (2.5×10^5 cells/dish), were radiolabeled with 0.5 μCi [^3H]-arachidonic acid per dish as previously described (29). Cells were washed once with DMEM containing 0.25% fatty acid free bovine serum albumin followed by two washes with DMEM alone. Cells were then incubated with the indicated concentrations of (R)-, (S)-, rac-BEL, or ethanol vehicle (0.1% final concentration) in DMEM for 20 min. This media was removed and the cells were then incubated with DMEM containing 10% heat-inactivated fetal bovine serum in the absence or presence of 1 μM AVP. In some tests, PMA (1 μM) or DOG (10 μM) was added to the medium containing AVP. After 5 mm, 1 ml of this medium was removed, lipids were extracted into 2 ml of chloroform/methanol/acetic acid (25:24:1 v/v) (38), and the remaining cells were scraped into 1 ml of deionized water prior to lipid extraction as described above. The chloroform layer was evaporated under nitrogen and the extracted lipids were separated by thin layer chromatography (petroleum ether/ethyl ether/glacial acetic acid 70:30:1). Regions containing fatty acids and phospholipids were scraped into vials and radioactivity was quantified by liquid scintillation spectrometry.
A-10 cells (2.5×10^5 cells/dish) were radiolabeled with [^3H]-arachidonic acid (0.5 μCi/dish) for 20 hrs. After washing to remove unincorporated [^3H]-arachidonic acid, cells were then incubated with either 1 μM or 5 μM (R)-BEL, (S)-BEL, rac-BEL, or ethanol vehicle (0.1%) in DMEM for 20 mm. This media was removed and the cells were then incubated with 3 ml of DMEM containing 10% heat-inactivated fetal bovine serum with or without 1 μM AVP. After 5 min, 1 ml of this medium was removed and lipids were extracted into 2 ml of chloroform/methanol/acetic acid (25:24:1). The remaining cells were scraped into 1 ml of deionized water and total lipids were extracted as described above. The chloroform layer was evaporated under nitrogen and the extracted lipids were separated by TLC. Regions containing fatty acids and phospholipids were scraped into vials and radioactivity was quantified by liquid scintillation spectrometry. Results are representative of four separate tests.
A-10 cells were radiolabeled with [^3H]-arachidonic acid, washed, and pre-incubated with 5 μM (S)-BEL or ethanol vehicle alone for 15 min as described in FIG. 5. DMEM media containing 10% heat-inactivated fetal bovine serum with or without 1 μM AVP was then added to the cells. After 5 min at 37° C., [^3H]-arachidonic acid released into the media and remaining within the cells (free and incorporated into phospholipids) was extracted into chloroform, separated by TLC, and quantified by liquid scintillation spectrometry as described in “Experimental Procedures”. Results are representative of three separate tests.

[2] = tested on: MAPK (ERK2) phosphorylation; assay: AVP-induced MAPK phosphorylation in A-10 cells (Western); type: cell-based, rat; settings: 5 μM, 15 min, 1 μM AVP; FIG. 9
PKCδ = assay: AVP-induced PKC translocation in A-10 cells (Western), PKCδ; type: cell-based, rat; settings: 5 μM pretreatment 15 min, 1 μM AVP; FIG. 8
Description: (§1) Determination of PKC Translocation—Confluent A-10 cells in 10 cm dishes were washed twice with DMEM without serum, followed by incubation with either 5 μM (S)-BEL or ethanol vehicle in DMEM for 15 min at 37° C. This media was then removed and DMEM with or without 1 μM AVP was incubated with the cells for 5 min. After washing with ice-cold PBS, the cells were collected by scraping into 20 mM Tris-HCl, pH 7.4 containing 0.33 M sucrose, 5 mM EDTA, 0.5 mM 4(2-aminoethyl)benzenesulfonylfluoride, and 5 μg/ml leupeptin and were lysed by three cycles of flash freezing with liquid nitrogen and thawing. Each sample was then further homogenized utilizing a teflon homogenizer before isolating the low speed pellet (1,000×g), membrane (100,000×g pellet), and cytosol (100,000×g supernatant) fractions. The protein concentrations of the fractions were determined utilizing the bicinchoninic acid (BCA) assay (Pierce) with BSA as a standard. Samples were electrophoresed and subjected to ECL Western analysis utilizing rabbit polyclonal antibodies against PKCα and PKCε as described above for MAPK phosphorylation. For blots incubated with mouse monoclonal antibodies against PKCδ and PKCι., an anti-mouse IgG (Fab specific)-peroxidase conjugate was utilized in place of the protein A-peroxidase conjugate. […]

PKCε = assay: AVP-induced PKC translocation in A-10 cells (Western), PKCε; type: cell-based, rat; settings: 5 μM pretreatment 15 min, 1 μM AVP; FIG. 8
Description: as §1

O=C1O/C(=C/Br)CC[C@H]1c1cccc2ccccc12 [(S)-BEL, (S)(E)-6-(bromomethylene)-3-(1-naphthalenyl)-2H-tetrahydropyran-2-one]
inhibition of chymotrypsin (α-chymotrypsin): considerably less potent | selectivity for inhibition of iPLA2β [1]: 10 fold | inhibition of iPLA2β, fold more potent than (R)-BEL ([1]; 3 min preincubation, FIG. 4A): 10 fold | selectivity for iPLA2β in comparison to iPLA2γ ([1]; in words): approximately an order of magnitude more selective | IC50 (A-10 smooth muscle cells; 1 μM AVP, read-out: IC50, AVP-induced liberation of AA from A-10 cells): ~1 µM | inhibition of AVP-induced AA release (A-10 smooth muscle cells; 1 μM inhibitor, 20 min pretreatment, 1 μM AVP, FIG. 5): 50% | AVP-induced AA release (in words) (A-10 smooth muscle cells; 5 μM inhibitor, 1 μM AVP, FIG. 5): completely attenuated | AVP-induced phosphorylation of ERK2 [2]: not effected | AVP-induced translocation of PKCδ to the membrane fraction (PKCδ): does not effect | AVP-induced translocation of PKCε to the membrane fraction (PKCε): does not effect

CCCCCCCC(=O)OC[C@H](CO)OC(=O)CCCCCCC [DOG, 1,2-Dioctanoyl-sn-glycerol]
restoration of arachidonic acid release in (S)-BEL treated A-10 cells (A-10 smooth muscle cells): Neither PMA or DOG could restore

CCCCCCCCCCCCCC(=O)O[C@@H]1[C@@H](C)[C@@]2(O)[C@@H](C=C(CO)C[C@]3(O)C(=O)C(C)=C[C@@H]23)[C@@H]2C(C)(C)[C@]12OC(C)=O [PMA, Phorbol-12-myristate-13-acetate]
restoration of arachidonic acid release in (S)-BEL treated A-10 cells (A-10 smooth muscle cells): Neither PMA or DOG could restore
